Assay results taken from patent US20250002487A1, “HETEROCYCLIC COMPOUNDS AND USES THEREOF” (Ventus Therapeutics U.S., Inc., priority 2021, published 2025).

Target: human-cGAS (h-cGAS) (Homo sapiens, UniProt Q8N884)
Assay: hcGAS Kinase-Glo Assay
Assay type: biochemical
Conditions: 40 nM h-cGAS, 100 μM ATP, 100 μM GTP, 25 nM dsDNA, 3 h incubation, read-out: hcGAS potency IC50
Experimental: In some embodiments, the compounds of the instant disclosure may be tested for their human-cGAS (h-cGAS) inhibition activity using the methodology reported in Lama et al., “Development of human cGAS-specific small molecule inhibitors for repression of double stranded DNA (dsDNA)-triggered interferon expression”, Nature Communications 10, Article number: 2261 (2019), incorporated herein by reference. hcGAS Kinase-Glo Assay Compounds were tested for their human-cGAS (h-cGAS) inhibition activity using the methodology reported in Lama et al., “Development of human cGAS-specific small molecule inhibitors for repression of double stranded DNA (dsDNA)-triggered interferon expression”, Nature Communications 10. Article number: 2261 (2019), which is herein incorporated by reference in its entirety, with slight changes to some conditions as shown in Table B. The results of the assays, expressed in IC50 ranges are reported in Table C with the following designations: A represents an IC50 value <0.1 μM; B represents an IC50 value ≥0.1 μM and <0.5 μM; C represents an IC50 value ≥0.5 μM and <1.0 μM; D represents an IC50 value ≥1.0 μM. [table]

Chain of human-cGAS (h-cGAS) (Q8N884 whole entry): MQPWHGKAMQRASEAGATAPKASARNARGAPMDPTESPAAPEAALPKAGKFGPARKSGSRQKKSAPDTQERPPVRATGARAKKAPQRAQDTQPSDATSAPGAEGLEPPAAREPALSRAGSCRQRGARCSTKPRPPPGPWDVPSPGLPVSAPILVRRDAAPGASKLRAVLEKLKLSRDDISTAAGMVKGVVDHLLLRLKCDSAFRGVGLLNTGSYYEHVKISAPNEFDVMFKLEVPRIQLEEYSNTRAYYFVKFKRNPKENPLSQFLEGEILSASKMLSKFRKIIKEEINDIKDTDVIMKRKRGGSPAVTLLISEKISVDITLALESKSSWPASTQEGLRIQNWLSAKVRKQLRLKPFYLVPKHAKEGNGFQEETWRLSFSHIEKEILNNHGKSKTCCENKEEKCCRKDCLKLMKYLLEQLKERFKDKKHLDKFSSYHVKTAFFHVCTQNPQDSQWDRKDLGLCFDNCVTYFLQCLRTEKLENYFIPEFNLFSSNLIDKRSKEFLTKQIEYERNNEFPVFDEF

SMILES | IC50 [nM]
CSc1nnc(NC(=O)c2cc(-c3ccc(Cl)s3)on2)s1 [Compound 95, 5-(5-chlorothiophen-2-yl)-N-(5-(methylthio)-1,3,4-thiadiazol-2-yl)isoxazole-3-carboxamide] | 500 to 1000
O=C(Nc1nnc(-c2cncs2)s1)c1onc2ccccc12 [Compound 128, N-(5-(thiazol-5-yl)-1,3,4-thiadiazol-2-yl)benzo[c]isoxazole-3-carboxamide] | ≥ 1000
CSc1nnc(NC(=O)c2noc(-c3cccnc3)n2)s1 [Compound 105, N-[5-(methylsulfanyl)-1,3,4-thiadiazol-2-yl]-5-(pyridin-3-yl)-1,2,4-oxadiazole-3-carboxamide] | ≥ 1000
CSc1nnc(NC(=O)c2onc3ccc(C(=O)c4ccccc4)cc23)s1 [Compound 167, 5-benzoyl-N-(5-(methylthio)-1,3,4-thiadiazol-2-yl)benzo[c]isoxazole-3-carboxamide] | ≥ 1000
CSc1nnc(NC(=O)c2nnc(N3CCC(O)C3)o2)s1 (centres unmarked) [Compound 116, 5-(3-hydroxypyrrolidin-1-yl)-N-[5-(methylsulfanyl)-1,3,4-thiadiazol-2-yl]-1,3,4-oxadiazole-2-carboxamide] | 500 to 1000
CSc1nnc(NC(=O)c2nnc(Cc3ccccc3Cl)o2)s1 [Compound 49, 5-(2-chlorobenzyl)-N-(5-(methylthio)-1,3,4-thiadiazol-2-yl)-1,3,4-oxdiazole-2-carboxamide] | 500 to 1000
CSc1nnc(NC(=O)c2onc3c2CN(C(=O)OC(C)(C)C)CC3)s1 [Compound 43, tert-butyl 3-((5-(methylthio)-1,3,4-thiadiazol-2-yl)carbamoyl)-6,7-dihydroisoxazolo[4,3-c]pyridine-5(4H)-carboxylate] | ≥ 1000
CSc1nnc(NC(=O)c2onc3c2CCCC3=O)s1 [Compound 195, N-(5-(methylthio)-1,3,4-thiadiazol-2-yl)-7-oxo-4,5,6,7-tetrahydrobenzo[c]isoxazole-3-carboxamide] | ≥ 1000
CCc1nnc(NC(=O)c2onc3ccccc23)s1 [Compound 69, N-(5-ethyl-1,3,4-thiadiazol-2-yl)benzo[c]isoxazole-3-carboxamide] | 500 to 1000
CSc1nnc(NC(=O)c2onc3ccc(Sc4ccccc4)cc23)s1 [Compound 163, N-(5-(methylthio)-1,3,4-thiadiazol-2-yl)-5-(phenylthio)benzo[c]isoxazole-3-carboxamide] | ≥ 1000
CSc1nnc(NC(=O)c2cc(-c3ccc(Cl)cc3)cc(=O)o2)s1 [Compound 243, 4-(4-chlorophenyl)-N-(5-methylsulfanyl-1,3,4-thiadiazol-2-yl)-6-oxo-pyran-2-carboxamide] | 500 to 1000
CSc1nnc(NC(=O)c2onc3ccccc23)s1 [Compound 79, N-(5-(methylthio)-1,3,4-thiadiazol-2-yl)benzo[c]isoxazole-3-carboxamide] | 500 to 1000
CSc1nnc(NC(=O)c2nnn(Cc3ccccc3)n2)s1 [Compound 134, 2-benzyl-N-(5-(methylthio)-1,3,4-thiadiazol-2-yl)-2H-tetrazole-5-carboxamide] | ≥ 1000
CSc1nnc(NC(=O)c2nc(-c3ccccc3)no2)s1 [Compound 234, N-[5-(methylsulfanyl)-1,3,4-thiadiazol-2-yl]-3-phenyl-1,2,4-oxadiazole-5-carboxamide] | 500 to 1000
O=C(Nc1ccccc1Cl)c1nnn2ccc(=O)[nH]c12 [Compound 97, N-(2-chlorophenyl)-5-oxo-4H-[1,2,3]triazolo[1,5-a]pyrimidine-3-carboxamide] | ≥ 1000
Cc1ccccc1-c1nnc(NC(=O)c2onc3ccccc23)s1 [Compound 27, N-(5-(o-tolyl)-1,3,4-thiadiazol-2-yl)benzo[c]isoxazole-3-carboxamide] | 500 to 1000
CSc1nnc(NC(=O)c2cc(-c3ccccc3C)no2)s1 [Compound 218, 3-(2-methylphenyl)-N-[5-(methylsulfanyl)-1,3,4-thiadiazol-2-yl]-1,2-oxazole-5-carboxamide] | 500 to 1000
COC(=O)c1cc(C(=O)Nc2nnc(SC)s2)on1 [Compound 15, methyl 5-((5-(methylthio)-1,3,4-thiadiazol-2-yl)carbamoyl)isoxazole-3-carboxylate] | 500 to 1000
O=C(Nc1nnc(-c2cscn2)s1)c1onc2ccccc12 [Compound 127, N-(5-(thiazol-4-yl)-1,3,4-thiadiazol-2-yl)benzo[c]isoxazole-3-carboxamide] | 500 to 1000
COC(=O)c1ccc2c(C(=O)Nc3nnc(SC)s3)onc2c1 [Compound 278, methyl 3-((5-(methylthio)-1,3,4-thiadiazol-2-yl)carbamoyl)benzo[c]isoxazole-6-carboxylate] | 500 to 1000

Next, values leading:

IC50 [nM] | SMILES
500 to 1000 | CSc1nnc(NC(=O)c2nnc(N(C)C(C)c3ccccc3)o2)s1 (centres unmarked) [Compound 114, 5-[methyl(1-phenylethyl)amino]-N-[5-(methylsulfanyl)-1,3,4-thiadiazol-2-yl]-1,3,4-oxadiazole-2-carboxamide]
100 to 500 | CSc1nnc(NC(=O)c2onc3cc(C(=O)O)ccc23)s1 [Compound 204]
100 to 500 | CSc1nnc(NC(=O)c2cc(-c3cccc4c3cnn4C)cc(=O)o2)s1 [Compound 269, 4-(1-methyl-1H-indazol-4-yl)-N-(5-(methylthio)-1,3,4-thiadiazol-2-yl)-2-oxo-2H-pyran-6-carboxamide]
100 to 500 | O=C(Nc1nnc(-c2ccccc2Cl)s1)c1cc(-c2ncc(F)cn2)no1 [Compound 156, N-(5-(2-Chlorophenyl)-1,3,4-thiadiazol-2-yl)-3-(5-fluoropyrimidin-2-yl)isoxazole-5-carboxamide]
100 to 500 | CSc1nnc(NC(=O)c2cc(-c3ccc(F)cc3)cc(=O)o2)s1 [Compound 239, 4-(4-fluorophenyl)-N-(5-methylsulfanyl-1,3,4-thiadiazol-2-yl)-6-oxo-pyran-2-carboxamide]
< 100 | O=C(O)c1cc(C(=O)Nc2nnc(-c3ccccc3Cl)s2)on1 [Compound 2, 5-((5-(2-chlorophenyl)-1,3,4-thiadiazol-2-yl)carbamoyl)isoxazole-3-carboxylic acid]
100 to 500 | COc1ccc(-c2cc(C(=O)Nc3nnc(SC)s3)oc(=O)c2)cc1 [Compound 252, 4-(4-methoxyphenyl)-N-(5-methylsulfanyl-1,3,4-thiadiazol-2-yl)-6-oxo-pyran-2-carboxamide]
< 100 | O=C(Nc1nnc(-c2cccc(Cl)c2Cl)s1)c1cc(O)no1 [Compound 57, N-(5-(2,3-dichlorophenyl)-1,3,4-thiadiazol-2-yl)-3-hydroxyisoxazole-5-carboxamide]
100 to 500 | CSc1nnc(NC(=O)c2cc(-c3ncccn3)no2)s1 [Compound 152, N-(5-(Methylthio)-1,3,4-thiadiazol-2-yl)-3-(pyrimidin-2-yl)isoxazole-5-carboxamide]
100 to 500 | CC1(c2cc(C(=O)Nc3nnc(-c4ccccc4Cl)s3)on2)COC1 [Compound 41, N-(5-(2-chlorophenyl)-1,3,4-thiadiazol-2-yl)-3-(3-methyloxetan-3-yl)isoxazole-5-carboxamide]
100 to 500 | NC(=O)c1cc(C(=O)Nc2nnc(-c3ccccc3Cl)s2)on1 [Compound 32, N5-(5-(2-chlorophenyl)-1,3,4-thiadiazol-2-yl)isoxazole-3,5-dicarboxamide]
100 to 500 | CC(=O)Nc1cc(C(=O)Nc2nnc(-c3ccccc3Cl)s2)on1 [Compound 5, 3-acetamido-N-(5-(2-chlorophenyl)-1,3,4-thiadiazol-2-yl)isoxazole-5-carboxamide]
